Measurements as given in patent EP3050886A1, “Fluorescent dyes and dye precursors” (Bürkert Werke GmbH, priority 2015, dated 2016).
Entries after “also recorded” stand apart in the source; their conditions may differ.

Experiments:
E. coli (ATCC 8739) = assay: Labeling of viable or dead E. coli, fluorescence microscopy; assay type: cell-based, Escherichia coli; settings: 15 µM, 30 min at 37 °C, Figure 4
Method: Escherichia coli (E. coli) (ATCC 8739) and Bacillus subtilis (B. subtilis) (ATCC 6633) strains were routinely grown in Luria Bertani (LB) broth or on LB agar plates for 18h at 37 °C. Waterborne environmental bacteria such as Enterobacter cloacae (E. cloacae), Chryseobacterium indologenes (C. indologenes), Pseudomonas aeruginosa (P. aeruginosa), and E. coli (EC18) were purchased from Eurofins™. Environmental bacteria were grown in LB broth or on casein-peptone soymeal-peptone agar plates for 18h at 37 °C.
For the staining tests, E. coli (ATCC 8739 or EC18), E. cloacae, C. indologenes, P. aeruginosa and B. subtilis were cultivated in Luria-Bertani (LB) broth until exponential phase at 37°C with shaking at 300 rpm revolutions per minutes (rpm). Bacteria were harvested and washed in sterile phosphate buffer saline solution (PBS) at pH […] by centrifugation at 10000 rpm for 3 min at room temperature (21 ± 2 °C). Then the bacteria were resuspended in PBS at a concentration of 1·10^9 bacteria/ml. Bacteria concentration was calculated according to the turbidity measure at 660 nm (A660nm=1 correspond to bacterial suspension at ∼ 5·10^8 bacteria/ ml).
Dead bacterial suspensions at 1·10^9 bacteria/ml (negative controls) of these five species of bacteria were prepared individually by addition of 20 µl of bleach containing 2.6 % active chlorine. Bacteria were treated with bleach solution for 15 min. Dead bacteria were washed twice in sterile PBS by centrifugation at 10000 rpm for 3 min at room temperature. The culturability of the negative controls was assessed by plating 100 µl of bacterial suspension onto LB agar or Caso agar and incubating the plates at 37 °C for 72 h.
Bacteria (100 µl suspension at 1·10^9 bacteria/ml) were stained with 10 µM or 15 µM of pro-fluorophore (5-CFDA, 5-PFDAE, 5-PFDAT, 5-PFDA, 5-COGDA, 5-POGDA or 5-POGAM) in 200 µl of PBS solution containing 0.6 % of glutaraldehyde. Bacteria were incubated at 37 °C for 10 - 60 min with pro-fluorophore in darkness. After bacterial staining, they were washed and resuspended in 100 µl of PBS as described above.
Staining of the bacterial suspension was observed under a fluorescent microscope. These bacteria were imaged with a Leica DM5500 microscope equipped with FITC filter. […] Images were collected with a 100x objective. Fluorescence intensity of stained bacterial suspension was also measured with FluoroLog®-3 (Horiba Jobin Yvon) spectrofluorometer equipped with sample stirring. Samples were placed in fluorescence grade quartz cuvette having a volume of 1 ml. The excitation wavelength used was 488 nm and emission wavelength used was 517 nm. The same experiment was repeated three times (n = 3).
The pro-fluorophores according to the present invention are preferably used to label E. coli cells. Viable or dead E. coli (ATCC 8739) are incubated with these fluorophores and commercial 5-CFDA as described above. […] Glutaraldehyde is added to the incubation solutions to improve the retention of the fluorophores in bacteria.
Bacteria were washed before being imaged with a Leica DM5500 microscope, 100x objective. Scale bars indicate 10 µm.

E. coli (EC18) = assay: Immunocapture of E. coli on beads and viability staining; assay type: cell-based, Escherichia coli; settings: 10 µM, 30 min at 37 °C, Trypan Blue as contrast agent
Text: In a further test, antibodies anti-EC18 pAB and pro-fluorophores (5-POGDA, 5-POGAM) were used to immobilize E. coli (EC18) on beads and to reveal the immobilized bacteria respectively. Immunocapture of E. coli on beads was done in order to concentrate the fluorescent signal in order to improve the detection of the viable cells. In these experiments, Protein G Sepharose beads coated with goat-anti-rabbit immunoglobulins were used.
Environmental E. coli (E18) were cultivated and re-suspended in PBS as previously described. E. coli (EC18) (100 µl of suspension at 1*10^9 bacteria/ml) were incubated with rabbit anti-EC18 polyclonal antibodies (anti-EC18 pAb) or pre-immune control rabbit serum without anti-EC18 antibodies (PI-pAb) (dilution 1/20) for 1 h at room temperature. This control rabbit serum (PI-pAb) was obtained from a non-immunized animal (Eurogentec). It was used as a negative control. Bacteria were washed three times in PBS by centrifugation at 10000 rpm for 3 min at room temperature.
Proteine G Sepharose 4 Fast Flow beads were washed three times in Milli-Q water and three times in PBS by centrifugation at 2000 rpm for 2 min at 4 °C. Then 10 µl of sedimented beads were incubated with 20 µg of secondary antibody goat-anti-rabbit immunoglobulin (Thermo Scientific Pierce, 31210) in 500 µl of PBS with 0.001% of NP40 for 1h at room temperature with gentle mixing on a wheel. […]

[1] = Short-term chemical stability (spontaneous fluorescence generation) in aqueous buffer; assay type: physicochemical; settings: for chemical stability in aqueous solution (in words): PBS solution containing 0.6 % glutaraldehyde, 37°C; for relative speed of spontaneous fluorescence generation (spontaneous hydrolysis): relative to 5-CFDA, 15 µM, PBS containing 0.6 % glutaraldehyde, pH ~7, 37°C, 0-60 min
Method: The short-term chemical stability of the pro-fluorophores of the present invention in an aqueous buffer was evaluated by fluorometric measurement analysis after several minutes of storage at 37°C.
Each pro-fluorophore (5-CFDA, 5-PFDAE, 5-PFDAT, 5-PFDA, 5-COGDA, 5-POGDA, 5-POGAM) was dissolved in dimethylsulfoxide (DMSO) in order to prepare a 10 mM stock solution. Short-term stability studies (0-60 min) were performed in the absence of light at 37°C. The pro-fluorophore stock solutions were diluted into a PBS solution containing 0.6 % of glutaraldehyde (pH ∼7). The pro-fuorophore final concentration was 15 µM. Samples were stored in a fluorescence grade quartz cuvette having a volume of 1 ml. Fluorescence emission spectra between 500 and 540 nm were recorded every 10 minutes. The excitation wavelength used was 488 nm. Fluorometric measurement were made with a FluoroLog®-3. (Horiba Jobin Yvon) spectrofluorometer equipped with sample stirring. The same experiment was repeated three times (n = 3).
Thus, the slope of the straight line corresponds to the speed of spontaneous fluorescence generation.

Row | SMILES | staining of viable E. coli (microscopy) (E. coli (ATCC 8739)) | fluorescence intensity of viable E. coli captured on beads compared with 5-CFDA (E. coli (EC18)) | chemical stability in aqueous solution (in words) [1] | relative speed of spontaneous fluorescence generation (spontaneous hydrolysis) [1]
1 | CCCNC(=O)c1ccc2c(c1)C(=O)OC21c2cc(F)c(OC(C)=O)cc2Oc2cc(OC(C)=O)c(F)cc21 [Example 5-POGDA, 2',7'-difluoro-3-oxo-5-(propylcarbamoyl)-3H-spiro[isobenzofuran-1,9'-xanthene]-3',6'-diyl diacetate] | specifically stained with high fluorescence intensity | still higher than the fluorescence intensity of E. coli stained with 5-CFDA | less stable | almost six times higher
2 | CCCNC(=O)c1ccc2c(c1)C(=O)OC21c2cc(F)c(OCOC(C)=O)cc2Oc2cc(OCOC(C)=O)c(F)cc21 [Example 5-POGAM, 2',7'-difluoro-3-oxo-5-(propylcarbamoyl)-3H-spiroisobenzofuran-1,9'-xanthene-3',6'-diyl diacetoxymethyl ether] | specifically stained with high fluorescence intensity | still higher than the fluorescence intensity of E. coli stained with 5-CFDA | greater chemical stability in aqueous solution; also recorded: much more stable in aqueous solution | almost four times slower
